What all share (format): functional
In assay [1] the test system is Streptococcus pneumoniae. Briefly: Antibacterial activity against erythromycin-susceptible Streptococcus pneumoniae 2860 by broth microdilution method. A general note: Broth dilution looks for growth in wells or tubes with falling amounts of substance.
In assay [2] the test system is Staphylococcus aureus. Briefly: Antibacterial activity against erythromycin-resistant Staphylococcus aureus AD-08 by broth microdilution method.
For assay [3], the system named is Staphylococcus aureus. Briefly: Antibacterial activity against erythromycin-susceptible Staphylococcus aureus 26001 by broth microdilution method.
The subject of assay [4] is Haemophilus influenzae. Briefly: Antibacterial activity against erythromycin-resistant Haemophilus influenzae 2412 by broth microdilution method.
Assay [5] concerns Haemophilus influenzae. Briefly: Antibacterial activity against erythromycin-susceptible Haemophilus influenzae 5096 by broth microdilution method.
In assay [6] the test system is Staphylococcus aureus. Briefly: Antibacterial activity against erythromycin-susceptible Staphylococcus aureus ATCC 6538p by broth microdilution method.
Assay [7] concerns Staphylococcus aureus. Briefly: Antibacterial activity against erythromycin-susceptible Staphylococcus aureus ATCC 29213 by broth microdilution method.
Assay [8] concerns Staphylococcus aureus. Briefly: Antibacterial activity against erythromycin-resistant Staphylococcus aureus 5676 by broth microdilution method.
In assay [9] the test system is Streptococcus pneumoniae. Briefly: Antibacterial activity against erythromycin-resistant Streptococcus pneumoniae 1210 by broth microdilution method.
In assay [10] the test system is Streptococcus pneumoniae. Briefly: Antibacterial activity against erythromycin-resistant Streptococcus pneumoniae 5158 by broth microdilution method.
Assay [11] deals with Streptococcus pneumoniae. Briefly: Antibacterial activity against erythromycin-resistant Streptococcus pneumoniae 673 by broth microdilution method.
Assay [12] deals with Staphylococcus aureus. Briefly: Antibacterial activity against erythromycin-resistant Staphylococcus aureus 5677 by broth microdilution method.

Values after ≈ are worked out from the molar mass of the structure shown.

Take `CC[C@H]1OC(=O)[C@H](C)C(=O)[C@H](C)[C@@H](O[C@@H]2O[C@H](C)C[C@H](N(C)C)[C@H]2O)[C@@](C)(OC)C[C@@H](C)C(=O)[C@H](C)[C@@H](O)C12C=NNC2` (some centres not stated): the MIC was 0.5 µg/mL (≈ 0.817 µM) with Streptococcus pneumoniae [1]; 512 µg/mL (≈ 837 µM) with Staphylococcus aureus [2]; 0.12 µg/mL (≈ 0.196 µM) with Staphylococcus aureus [3]; above 8 µg/mL in the assay with Haemophilus influenzae [4]; 0.06 µg/mL (≈ 0.0981 µM) in the assay with Haemophilus influenzae [5]; 0.25 µg/mL (≈ 0.409 µM) against Staphylococcus aureus [6]. For the same molecule, the MIC is 0.25 µg/mL (≈ 0.409 µM) in the assay with Staphylococcus aureus [7]; 4 µg/mL (≈ 6.54 µM) in the assay with Staphylococcus aureus [8]; above 64 µg/mL in the assay with Streptococcus pneumoniae [9]; above 64 µg/mL against Streptococcus pneumoniae [10]; above 64 µg/mL with Streptococcus pneumoniae [11]; 8 µg/mL (≈ 13.1 µM) with Staphylococcus aureus [12].

As to `CC[C@H]1OC(=O)[C@H](C)C(=O)[C@H](C)[C@@H](O[C@@H]2O[C@H](C)C[C@H](N(C)C)[C@H]2O)[C@](C)(OC)C[C@@H](C)C(=O)[C@H](C)[C@@H](O)C12C=NNC2C` (some centres not stated), the MIC against Streptococcus pneumoniae [1] is 0.5 µg/mL (≈ 0.799 µM); in the assay with Staphylococcus aureus [2], 512 µg/mL (≈ 818 µM); with Staphylococcus aureus [3] it was 0.12 µg/mL (≈ 0.192 µM); in the assay on Haemophilus influenzae [4], above 8 µg/mL; in the assay on Haemophilus influenzae [5], 0.06 µg/mL (≈ 0.0959 µM); with Staphylococcus aureus [6] it was 0.25 µg/mL (≈ 0.399 µM). The MIC is 0.5 µg/mL (≈ 0.799 µM) in the assay with Staphylococcus aureus [7]; 8 µg/mL (≈ 12.8 µM) against Staphylococcus aureus [8]; above 64 µg/mL with Streptococcus pneumoniae [9]; above 64 µg/mL in the assay on Streptococcus pneumoniae [10]; above 64 µg/mL in the assay on Streptococcus pneumoniae [11]; 8 µg/mL (≈ 12.8 µM) against Staphylococcus aureus [12].

`CCOC(=O)C1NN=CC12[C@H](O)[C@@H](C)C(=O)[C@H](C)C[C@@](C)(OC)[C@H](O[C@@H]1O[C@H](C)C[C@H](N(C)C)[C@H]1O)[C@@H](C)C(=O)[C@@H](C)C(=O)O[C@@H]2CC` (some centres not stated): the MIC against Streptococcus pneumoniae [1] is 0.5 µg/mL (≈ 0.731 µM); in the assay with Staphylococcus aureus [2], 512 µg/mL (≈ 749 µM); against Staphylococcus aureus [3], 0.12 µg/mL (≈ 0.175 µM); in the assay with Haemophilus influenzae [4], above 8 µg/mL; against Haemophilus influenzae [5], 0.06 µg/mL (≈ 0.0877 µM); against Staphylococcus aureus [6], 0.12 µg/mL (≈ 0.175 µM). Also, the MIC in the assay with Staphylococcus aureus [7] is 0.12 µg/mL (≈ 0.175 µM); against Staphylococcus aureus [8], 8 µg/mL (≈ 11.7 µM); in the assay on Streptococcus pneumoniae [9], above 64 µg/mL; in the assay on Streptococcus pneumoniae [10], 8 µg/mL (≈ 11.7 µM); against Streptococcus pneumoniae [11] it was 8 µg/mL (≈ 11.7 µM); against Staphylococcus aureus [12], 8 µg/mL (≈ 11.7 µM).

With `CC[C@H]1OC(=O)[C@H](C)C(=O)[C@H](C)[C@@H](O[C@@H]2O[C@H](C)C[C@H](N(C)C)[C@H]2O)[C@](C)(OC)C[C@@H](C)C(=O)[C@H](C)[C@@H](O)C12C=NNC2C(=O)OC` (some centres not stated), the MIC with Streptococcus pneumoniae [1] was 0.5 µg/mL (≈ 0.746 µM); in the assay with Staphylococcus aureus [2], 256 µg/mL (≈ 382 µM); with Staphylococcus aureus [3], 0.03 µg/mL (≈ 0.0448 µM); in the assay on Haemophilus influenzae [4] it was above 8 µg/mL; against Haemophilus influenzae [5] it was 0.06 µg/mL (≈ 0.0896 µM); against Staphylococcus aureus [6], 0.12 µg/mL (≈ 0.179 µM). Further, the MIC against Staphylococcus aureus [7] is 0.12 µg/mL (≈ 0.179 µM); against Staphylococcus aureus [8], 4 µg/mL (≈ 5.97 µM); in the assay on Streptococcus pneumoniae [9], above 64 µg/mL; in the assay on Streptococcus pneumoniae [10], 8 µg/mL (≈ 11.9 µM); against Streptococcus pneumoniae [11] it was 8 µg/mL (≈ 11.9 µM); against Staphylococcus aureus [12], 4 µg/mL (≈ 5.97 µM).

For `CC[C@H]1OC(=O)[C@H](C)[C@@H](O[C@H]2C[C@@](C)(OC)[C@@H](O)[C@H](C)O2)[C@H](C)[C@@H](O[C@@H]2O[C@H](C)C[C@H](N(C)C)[C@H]2O)[C@](C)(OC)C[C@@H](C)C(=O)[C@H](C)[C@@H](O)[C@]1(C)O` [CLARITHROMYCIN], the MIC was 0.125 µg/mL (≈ 0.167 µM) in the assay on Streptococcus pneumoniae [1]; above 1020 µg/mL in the assay with Staphylococcus aureus [2]; at most 0.063 µg/mL in the assay with Staphylococcus aureus [3]; 8 µg/mL (≈ 10.7 µM) in the assay on Haemophilus influenzae [4]; 0.06 µg/mL (≈ 0.0802 µM) in the assay on Haemophilus influenzae [5]; 0.5 µg/mL (≈ 0.668 µM) against Staphylococcus aureus [6]. Moreover, the MIC in the assay on Staphylococcus aureus [7] was 0.25 µg/mL (≈ 0.334 µM); against Staphylococcus aureus [8], above 1020 µg/mL; with Streptococcus pneumoniae [9], above 16 µg/mL; in the assay on Streptococcus pneumoniae [10] it was above 16 µg/mL; in the assay on Streptococcus pneumoniae [11], above 16 µg/mL; in the assay on Staphylococcus aureus [12], above 1020 µg/mL.

On to `CC[C@H]1OC(=O)[C@H](C)[C@@H](O[C@H]2C[C@@](C)(OC)[C@@H](O)[C@H](C)O2)[C@H](C)[C@@H](O[C@@H]2O[C@H](C)C[C@H](N(C)C)[C@H]2O)[C@](C)(O)C[C@@H](C)C(=O)[C@H](C)[C@@H](O)[C@]1(C)O` [ERYTHROMYCIN], for which the MIC in the assay on Streptococcus pneumoniae [1] was 0.25 µg/mL (≈ 0.341 µM); against Staphylococcus aureus [2] it was above 1020 µg/mL; against Staphylococcus aureus [3] it was at most 0.063 µg/mL; with Haemophilus influenzae [4], 4 µg/mL (≈ 5.45 µM); in the assay with Haemophilus influenzae [5], 0.06 µg/mL (≈ 0.0818 µM); in the assay on Staphylococcus aureus [6], 0.5 µg/mL (≈ 0.681 µM). In addition, the MIC in the assay on Staphylococcus aureus [7] is 0.5 µg/mL (≈ 0.681 µM); against Staphylococcus aureus [8] it was above 1020 µg/mL; against Streptococcus pneumoniae [9], above 32 µg/mL; in the assay with Streptococcus pneumoniae [10] it was above 32 µg/mL; with Streptococcus pneumoniae [11] it was above 32 µg/mL; against Staphylococcus aureus [12], above 1020 µg/mL.

The record behind these values is ChEMBL document CHEMBL1629523, “Synthesis and antibacterial activity of C-12 pyrazolinyl spiro ketolides” (2010).
